Counter-ions that a name gives are not always drawn.
Key:
WT KRAS = WT KRAS (Homo sapiens, UniProt P01116); assay: KRAS WT Probe Displacement Assay (TR-FRET, GDP-loaded); format: binding; conditions: KRAS WT, read-out: KRAS^WT Probe Displacement Assay IC50
Text: (§1) The synthetic routes of probe 1 and 2, which have been disclosed in PCT/CN2022/070676, are hereby incorporated herein.

KRAS G12D = KRAS G12D (Homo sapiens, UniProt P01116, G12D); assay: KRAS G12D Probe Displacement Assay (TR-FRET, GDP-loaded); format: binding; conditions: KRAS G12D, read-out: KRAS^G12D Probe Displacement Assay IC50
Sequence of KRAS G12D (P01116 1-188 isoform P01116-2 G12D): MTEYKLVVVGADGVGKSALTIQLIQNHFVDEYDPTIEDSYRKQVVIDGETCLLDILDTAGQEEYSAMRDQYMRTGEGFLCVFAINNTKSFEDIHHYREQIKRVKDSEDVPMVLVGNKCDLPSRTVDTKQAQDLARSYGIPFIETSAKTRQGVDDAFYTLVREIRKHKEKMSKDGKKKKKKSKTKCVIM
Text: as §1

Sequence of WT KRAS (P01116 1-188 isoform P01116-2): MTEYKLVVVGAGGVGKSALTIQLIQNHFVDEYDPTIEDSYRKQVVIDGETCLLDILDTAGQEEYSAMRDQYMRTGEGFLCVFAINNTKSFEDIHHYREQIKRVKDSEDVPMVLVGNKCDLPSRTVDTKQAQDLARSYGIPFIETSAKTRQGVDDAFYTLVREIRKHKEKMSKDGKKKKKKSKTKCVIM

In the case of Cc1cc(N)cc(-c2nc3c4c(nc(OCC5(CN6C[C@@H](F)[C@@H](O)C6)CC5)nc4c2F)N2C[C@H]4CC[C@H](N4)[C@H]2CCO3)c1C(F)(F)F (stereo in doubt) [Example 95, cis-1-((1-((((6aR, 7S,10R)-2-(5-amino-3-methyl-2-(trifluoromethyl)phenyl)-1-fluoro-5,6,6a,7,8,9,10,11-octahydro-4-oxa-3,11a,12,14,15-pentaaza-7,10-methanocyclohepta [4,5]cycloocta[1,2,3-de]naphthalen-13-yl)oxy)methyl)cyclopropyl)methyl)-4-fluoropyrrolidin-3-ol formate], the IC50 (WT KRAS) is reported as 3 to 1000 nM and the IC50 (KRAS G12D) is reported as under 0.3 nM.
With Cc1cc(N)cc(-c2nc3c4c(nc(OCC56CCCN5CC(F)(F)C6)nc4c2F)N2C[C@H]4CC[C@H](N4)[C@H]2CCO3)c1C(F)(F)F (stereo partly drawn) [Example 1, 3-((6aR,7S,10R)-13-((2,2-difluorotetrahydro-1H-pyrrolizin-7a(5H)-yl)methoxy)-1-fluoro-5,6,6a,7,8,9,10,11-octahydro-4-oxa-3,11a,12,14,15-pentaaza-7,10-methanocyclohepta[4,5]cycloocta[1,2,3-de]naphthalen-2-yl)-5-methyl-4-(trifluoromethyl)aniline] the IC50 (WT KRAS) was 3 to 1000 nM and the IC50 (KRAS G12D) was 0.3 to 3 nM.
Cc1cc(N)cc(-c2nc3c4c(nc(OCC5(C)CC(F)CN(C)C5)nc4c2F)N2C[C@H]4CC[C@H](N4)[C@H]2CCO3)c1C(F)(F)F (stereo partly drawn) [Example 5, 3-((6aR,7S,10R)-1-fluoro-13-((5-fluoro-1,3-dimethylpiperidin-3-yl)methoxy)-5,6,6a,7,8,9,10,11-octahydro-4-oxa-3,11a,12,14,15-pentaaza-7,10-methanocyclohepta[4,5]cycloocta [1,2,3-de]naphthalen-2-yl)-5-methyl-4-(trifluoromethyl)aniline] gave an IC50 (WT KRAS) of 3 to 1000 nM and an IC50 (KRAS G12D) of under 0.3 nM.
In the case of Cc1cc(N)cc(-c2nc3c4c(nc(OCC56CC(F)CN5CC(F)C6)nc4c2F)N2C[C@H]4CC[C@H](N4)[C@H]2CCO3)c1C(F)(F)F (stereo partly drawn) [Example 6, 3-((6aR,7S,10R)-13-((2,6-difluorotetrahydro-1H-pyrrolizin-7a(5H)-yl)methoxy)-1-fluoro-5,6,6a,7,8,9,10,11-octahydro-4-oxa-3,11a,12,14,15-pentaaza-7,10-methanocyclohepta[4,5]cycloocta [1,2,3-de]naphthalen-2-yl)-5-methyl-4-(trifluoromethyl)aniline], the IC50 (WT KRAS) is reported as 3 to 1000 nM and the IC50 (KRAS G12D) is reported as 0.3 to 3 nM.
For Cc1cc(N)cc(-c2nc3c4c(nc(O[C@H]5COCC[C@@H]5N(C)C)nc4c2F)N2C[C@H]4CC[C@H](N4)[C@H]2CCO3)c1C(F)(F)F [Example 8, (3R,4S)-3-(((6aR,7S,10R)-2-(5-amino-3-methyl-2-(trifluoromethyl)phenyl)-1-fluoro-5,6,6a,7,8,9,10,11-octahydro-4-oxa-3,11a,12,14,15-pentaaza-7,10-methanocyclohepta[4,5]cycloocta [1,2,3-de]naphthalen-13-yl)oxy)-N,N-dimethyltetrahydro-2H-pyran-4-amine], the IC50 (WT KRAS) was 3 to 1000 nM and the IC50 (KRAS G12D) was 0.3 to 3 nM.
For Cc1cc(N)cc(-c2nc3c4c(nc(OC[C@@H]5COC[C@H]5N(C)C)nc4c2F)N2C[C@H]4CC[C@H](N4)[C@H]2CCO3)c1C(F)(F)F [Example 13, (3S,4S)-4-((((6aR,7S,10R)-2-(5-amino-3-methyl-2-(trifluoromethyl)phenyl)-1-fluoro-5,6,6a,7,8,9,10,11-octahydro-4-oxa-3,11a,12,14,15-pentaaza-7,10-methanocyclohepta[4,5]cycloocta [1,2,3-de]naphthalen-13-yl)oxy)methyl)-N,N-dimethyltetrahydrofuran-3-amine], the IC50 (WT KRAS) was 3 to 1000 nM and the IC50 (KRAS G12D) was under 0.3 nM.
With Cc1cc(N)cc(-c2nc3c4c(nc(OCC5(CN(C)C)CC5(F)F)nc4c2F)N2C[C@H]4CC[C@H](N4)[C@H]2CCO3)c1C(F)(F)F (some centres unmarked) [Example 16] the IC50 (WT KRAS) was 3 to 1000 nM and the IC50 (KRAS G12D) was under 0.3 nM.
For Cc1cc(N)cc(-c2nc3c4c(nc(OCC5(CN6CCC6)CC5(F)F)nc4c2F)N2C[C@H]4CC[C@H](N4)[C@H]2CCO3)c1C(F)(F)F (stereo partly drawn) [Example 19, 3-((6aR,7S,10R)-13-((1-(azetidin-1-ylmethyl)-2,2-difluorocyclopropyl)methoxy)-1-fluoro-5,6,6a,7,8,9,10,11-octahydro-4-oxa-3,11a,12,14,15-pentaaza-7,10-methanocyclohepta[4,5]cycloocta[1,2,3-de]naphthalen-2-yl)-5-methyl-4-(trifluoromethyl)aniline], the IC50 (WT KRAS) was 3 to 1000 nM and the IC50 (KRAS G12D) was under 0.3 nM.
Cc1cc(N)cc(-c2nc3c4c(nc(N5CC(C)(N(C)C)C5)nc4c2F)N2C[C@H]4CC[C@H](N4)[C@H]2CCO3)c1C(F)(F)F [Example 30] gave an IC50 (WT KRAS) of 3 to 1000 nM and an IC50 (KRAS G12D) of 0.3 to 3 nM.
In the case of CN(C)C1(C)CN(c2nc3c4c(nc(-c5cc(N)cc(Cl)c5C(F)(F)F)c(F)c4n2)OCC[C@@H]2[C@@H]4CC[C@H](CN32)N4)C1 [Example 31, 1-((6aR,7S,10R)-2-(5-amino-3-chloro-2-(trifluoromethyl)phenyl)-1-fluoro-5,6,6a,7,8,9,10,11-octahydro-4-oxa-3,11a,12,14,15-pentaaza-7,10-methanocyclohepta[4,5]cycloocta [1,2,3-de]naphthalen-13-yl)-N,N,3-trimethylazetidin-3-amine], the IC50 (WT KRAS) is reported as 3 to 1000 nM and the IC50 (KRAS G12D) is reported as 0.3 to 3 nM.
With Cc1cc(N)cc(-c2nc3c4c(nc(N5CC(N(C)C)C5)nc4c2F)N2C[C@H]4CC[C@H](N4)[C@H]2CCO3)c1C(F)(F)F [Example 32, 1-((6aR,7S,10R)-2-(5-amino-3-methyl-2-(trifluoromethyl)phenyl)-1-fluoro-5,6,6a,7,8,9,10,11-octahydro-4-oxa-3,11a,12,14,15-pentaaza-7,10-methanocyclohepta[4,5]cycloocta [1,2,3-de]naphthalen-13-yl)-N,N-dimethylazetidin-3-amine] the IC50 (WT KRAS) was 3 to 1000 nM and the IC50 (KRAS G12D) was 0.3 to 3 nM.
Cc1cc(N)cc(-c2nc3c4c(nc(OC[C@@]56CCCN5CC(F)(F)C6)nc4c2F)N2C[C@H]4CC[C@H](N4)[C@H]2CCO3)c1C(F)(F)F [Example 33, 3-((6aR,7S,10R)-13-(((S)-2,2-difluorotetrahydro-1H-pyrrolizin-7a(5H)-yl)methoxy)-1-fluoro-5,6,6a,7,8,9,10,11-octahydro-4-oxa-3,11a,12,14,15-pentaaza-7,10-methanocyclohepta[4,5]cycloocta [1,2,3-de]naphthalen-2-yl)-5-methyl-4-(trifluoromethyl)aniline] was tested, and the IC50 (WT KRAS) was 3 to 1000 nM and the IC50 (KRAS G12D) was under 0.3 nM.
Cc1cc(N)cc(-c2nc3c4c(nc(OC[C@]56CCCN5CC(F)(F)C6)nc4c2F)N2C[C@H]4CC[C@H](N4)[C@H]2CCO3)c1C(F)(F)F [Example 34, 3-((6aR,7S,10R)-13-(((R)-2,2-difluorotetrahydro-1H-pyrrolizin-7a(5H)-yl)methoxy)-1-fluoro-5,6,6a,7,8,9,10,11-octahydro-4-oxa-3,11a,12,14,15-pentaaza-7,10-methanocyclohepta[4,5]cycloocta [1,2,3-de]naphthalen-2-yl)-5-methyl-4-(trifluoromethyl)aniline] showed an IC50 (WT KRAS) of 3 to 1000 nM and an IC50 (KRAS G12D) of 0.3 to 3 nM.
Cc1cc(N)cc(-c2nc3c4c(nc(OC[C@]56C[C@H](F)CN5C[C@H](F)C6)nc4c2F)N2C[C@H]4CC[C@H](N4)[C@H]2CCO3)c1C(F)(F)F [Example 35] gave an IC50 (WT KRAS) of 3 to 1000 nM and an IC50 (KRAS G12D) of 0.3 to 3 nM.
Work on Cc1cc(N)cc(-c2nc3c4c(nc(OCC56C[C@@H](F)CN5C[C@H](F)C6)nc4c2F)N2C[C@H]4CC[C@H](N4)[C@H]2CCO3)c1C(F)(F)F [Example 36, 3-((6aR,7S,10R)-13-(((2R,6R)-2,6-difluorotetrahydro-1H-pyrrolizin-7a(5H)-yl)methoxy)-1-fluoro-5,6,6a,7,8,9,10,11-octahydro-4-oxa-3,11a,12,14,15-pentaaza-7,10-methanocyclohepta[4,5]cycloocta [1,2,3-de]naphthalen-2-yl)-5-methyl-4-(trifluoromethyl)aniline] yielded an IC50 (WT KRAS) of 3 to 1000 nM and an IC50 (KRAS G12D) of under 0.3 nM.
Molecule Cc1cc(N)cc(-c2nc3c4c(nc(O[C@@H](C)[C@@H]5CCCN5C)nc4c2F)N2C[C@H]4CC[C@H](N4)[C@H]2CCO3)c1C(F)(F)F [Example 37, 3-((6aR,7S,10R)-1-fluoro-13-((S)-1-((S)-1-methylpyrrolidin-2-yl)ethoxy)-5,6,6a,7,8,9,10,11-octahydro-4-oxa-3,11a,12,14,15-pentaaza-7,10-methanocyclohepta[4,5]cycloocta [1,2,3-de]naphthalen-2-yl)-5-methyl-4-(trifluoromethyl)aniline] has an IC50 (WT KRAS) of 3 to 1000 nM and an IC50 (KRAS G12D) of under 0.3 nM.
In the case of Cc1cc(N)cc(-c2nc3c4c(nc(O[C@H](C)[C@@H]5CCCN5C)nc4c2F)N2C[C@H]4CC[C@H](N4)[C@H]2CCO3)c1C(F)(F)F [Example 38, 3-((6aR,7S,10R)-1-fluoro-13-((R)-1-((S)-1-methylpyrrolidin-2-yl)ethoxy)-5,6,6a,7,8,9,10,11-octahydro-4-oxa-3,11a,12,14,15-pentaaza-7,10-methanocyclohepta[4,5]cycloocta [1,2,3-de]naphthalen-2-yl)-5-methyl-4-(trifluoromethyl)aniline], the IC50 (WT KRAS) is reported as 3 to 1000 nM and the IC50 (KRAS G12D) is reported as 0.3 to 3 nM.
With Cc1cc(N)cc(-c2nc3c4c(nc(OC[C@H]5COC[C@H]5N(C)C)nc4c2F)N2C[C@H]4CC[C@H](N4)[C@H]2CCO3)c1C(F)(F)F [Example 41, (3S,4R)-4-((((6aR,7S,10R)-2-(5-amino-3-methyl-2-(trifluoromethyl)phenyl)-1-fluoro-5,6,6a,7,8,9,10,11-octahydro-4-oxa-3,11a,12,14,15-pentaaza-7,10-methanocyclohepta[4,5]cycloocta [1,2,3-de]naphthalen-13-yl)oxy)methyl)-N,N-dimethyltetrahydrofuran-3-amine] the IC50 (WT KRAS) was 3 to 1000 nM and the IC50 (KRAS G12D) was 0.3 to 3 nM.
In the case of CN(C)C[C@]1(COc2nc3c4c(nc(-c5cc(N)cc(Cl)c5C(F)(F)F)c(F)c4n2)OCC[C@@H]2[C@@H]4CC[C@H](CN32)N4)CC1(F)F [Example 44, 3-chloro-5-((6aR,7S,10R)-13-(((S)-1-((dimethylamino)methyl)-2,2-difluorocyclopropyl)methoxy)-1-fluoro-5,6,6a,7,8,9,10,11-octahydro-4-oxa-3,11a,12,14,15-pentaaza-7,10-methanocyclohepta[4,5]cycloocta [1,2,3-de]naphthalen-2-yl)-4-(trifluoromethyl)aniline], the IC50 (WT KRAS) is reported as 0.3 to 3 nM and the IC50 (KRAS G12D) is reported as under 0.3 nM.
